# Results reported in a melting point compilation (Tetko et al.; mined from patent text by program, amines drawn as free bases though some values may be those of a salt).
row,melting point [°C],SMILES
1,142,OC[C@@H]1CN(C(c2ccccc2)(c2ccccc2)c2ccccc2)CCO1
2,67 to 79,COC(=O)c1csc(-c2ccc(OC)cc2)n1
3,142 to 144,CCSCc1cccc(-c2nc(=O)c3ccccc3s2)n1
4,237,NS(=O)(=O)c1cccc(-c2cc(-c3nc(-c4ccc(C(F)(F)F)cc4)cc(C(F)(F)F)n3)ccn2)c1
5,236 to 238,COC(=O)c1cc2n(n1)-c1ccc(Cl)cc1C(c1ccccc1)NC2=O (stereo not drawn)
6,53,CCC(C)(C)C1=C(OC(C)=O)C(=O)c2ccccc2C1=O
7,155 to 158,O=C1C=C(c2ccc[nH]2)C(=O)c2ccccc21
8,214 to 215,NC(=O)N1C(=O)C(=C(OC(=O)C=Cc2ccccc2)c2cccs2)c2cc(F)c(Cl)cc21
9,149 to 150,CNC(=O)Nc1ccccc1
10,300,O=C(O)c1ccc(-c2nc(-c3ccc(Cl)s3)co2)cc1
11,114 to 124,O=C(c1nnc(-c2ccccc2)o1)N1CC(Oc2ccc(CN3CC4(COC4)C3)c(Cl)c2)C1
12,184 to 188,Cc1ccc2cccc(OCc3cccc([N+](=O)[O-])c3C)c2n1
13,184 to 185,COc1cc(-c2cc(=O)c3ccc(OCCBr)cc3o2)cc(OC)c1OC
14,91 to 93,CCS(=O)(=O)N(C)C1CC(C)(C)Oc2ccc(OCc3ccccc3)cc21 (stereo not drawn)
15,120 to 122,CC1CCC(N2c3ccccc3Oc3c(Cl)cccc32)=N1 (stereo not drawn)
16,258 to 260,O=c1[nH]c2cc(Cl)c(Cl)cc2[n+]([O-])c1-c1cccc(Oc2ccccc2)c1
17,102 to 104,COc1cc(C2CCCO2)cc(OC)c1OC (stereo not drawn)
18,100,COc1c(OCc2ccc3ccccc3c2)cccc1C(=O)c1nccs1
19,138,CCN(CC)Cc1nn2cc(-c3ccccc3)nc2s1
20,63.3 to 64,COc1ccc(C=CC(=O)c2cccc(OC)c2OC)cc1Oc1ccccc1
21,64,CCCCOc1cc(CCC(=O)O)ccc1CCCc1ccc(OS(=O)(=O)CC)c(OC)c1

# Second part, the compound before the results:
row,SMILES,melting point [°C]
1,CP(C)(=O)COc1cc(Cl)c(C=O)c(Cl)c1,136 to 139
2,Cc1cc(C#N)c(N)cc1Cl,180
3,N#CCOc1cc(-c2ccccc2)[nH]n1,143
4,O=C1CCC(O)=C1Cc1ccc(Br)cc1,199 to 201
5,Cc1cc(CC(=O)NCc2cccc3c2C(=O)N(C2CCC(=O)NC2=O)C3=O)c(C)o1 (stereo not drawn),193 to 195
6,Cc1cc2nc(Cl)cc(NCc3c(C)cccc3C)c2[nH]1,310 to 312
7,CCCCNc1nc(C)c(C(=O)OCC)c(N)c1[N+](=O)[O-],74 to 76
8,N#CC(=C1CCCN1)c1ccc(Cl)cc1,135 to 137
9,COC(=O)c1ccc(Cl)c(Cn2nc(C(F)(F)F)n(C)c2=O)c1Cl,109
10,CC(C)(C)OC(=O)NC1CSCCNC1=O (stereo not drawn),200 to 201
11,CCN(CC)CC#CC(=O)c1ccc(C)cc1,115 to 117
12,CC(C)(C)N=NC1(C(N)=O)CCCCC1,86 to 92
13,COCC(O)=C(N)C(=O)O,186 to 187
14,CCn1cc(C(=O)O)c(=O)c2cnc(N3CCN(Cc4ccc([N+](=O)[O-])cc4)CC3)nc21,259 to 261
15,CCN(CC)CCC(=O)C1Nc2cnccc2N(C)n2cccc21 (stereo not drawn),170 to 172
16,Cc1ccc(C)n1CCNC(=O)c1ccc(Cl)cc1,104 to 105
17,Cc1ccc2c(c1)CC1(CCC(=O)CC1)C21OCCO1,124 to 127
18,CC1Cc2cccc3c4oc(=O)c(Br)c(O)c4c(=O)n1c23 (stereo not drawn),221 to 222
19,CC(C=C(N)C(=O)OCc1ccc(Cl)cc1)CP(=O)(O)O (stereo not drawn),207 to 208
20,Cc1cc2c([N+](=O)[O-])cccc2c(Cl)n1,112
21,O=S(c1cc(Br)c(-c2ccc(Cl)cc2)[nH]1)C(F)(F)F (stereo not drawn),177 to 179
22,Cc1nc(Cn2nnnc2-c2cccc(Cl)c2Cl)cs1,156 to 158
